Reference: US5925769A, “Acetylenic 1,5-diarylpyrazoles as antiinflammatory agents” (Ortho Pharmaceutical, Corp., priority 1998, dated 1999)

Assays:
CO [1] = biological target: T1, CO (Rattus norvegicus, UniProt Q63921); experiment: Procedure II: CO activity in broken RBL-1 cells (homogenate supernatant); assay type: biochemical; settings: RBL-1 broken cell supernatant; read-out: Proc. II CO IC50
T1 construct: the supernatant was saved as the source of enzymes; endogenous in cells; host or cells: RBL-1 (rat basophilic leukemia) cells
T1 sequence (Q63921 27-602): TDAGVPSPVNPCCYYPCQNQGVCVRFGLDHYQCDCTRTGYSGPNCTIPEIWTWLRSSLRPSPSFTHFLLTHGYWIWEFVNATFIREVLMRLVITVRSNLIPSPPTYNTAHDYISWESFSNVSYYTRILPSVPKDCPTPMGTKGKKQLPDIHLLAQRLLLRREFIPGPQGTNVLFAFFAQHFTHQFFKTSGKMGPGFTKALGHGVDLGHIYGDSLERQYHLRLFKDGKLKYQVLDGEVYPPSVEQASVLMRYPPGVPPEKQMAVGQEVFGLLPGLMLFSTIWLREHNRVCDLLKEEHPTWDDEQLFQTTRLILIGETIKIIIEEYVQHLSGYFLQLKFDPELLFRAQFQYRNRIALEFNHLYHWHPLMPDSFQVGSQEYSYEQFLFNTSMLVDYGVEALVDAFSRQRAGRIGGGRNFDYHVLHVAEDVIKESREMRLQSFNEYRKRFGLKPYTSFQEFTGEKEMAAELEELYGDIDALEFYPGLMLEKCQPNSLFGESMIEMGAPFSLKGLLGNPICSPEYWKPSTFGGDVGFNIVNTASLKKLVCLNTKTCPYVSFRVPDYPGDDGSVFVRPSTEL
Method in brief: (§1)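 Supernatant from rat RBL-1 homogenate (9,220×g) was pre-incubated 5 min at 37 °C with 2 mM CaCl2 and compound or 1% DMSO, then with 1-^14C-arachidonic acid for 20 min at 37 °C.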

5-LO = biological target: T2, 5-LO (Rattus norvegicus, UniProt P12527); experiment: Procedure II: 5-LO activity (5-HETE) in broken RBL-1 cells (homogenate supernatant); assay type: biochemical; settings: RBL-1 broken cell supernatant; read-out: Proc. II 5-LO IC50
T2 construct: the supernatant was saved as the source of enzymes; endogenous in cells; host or cells: RBL-1 (rat basophilic leukemia) cells
T2 sequence (P12527 1-673): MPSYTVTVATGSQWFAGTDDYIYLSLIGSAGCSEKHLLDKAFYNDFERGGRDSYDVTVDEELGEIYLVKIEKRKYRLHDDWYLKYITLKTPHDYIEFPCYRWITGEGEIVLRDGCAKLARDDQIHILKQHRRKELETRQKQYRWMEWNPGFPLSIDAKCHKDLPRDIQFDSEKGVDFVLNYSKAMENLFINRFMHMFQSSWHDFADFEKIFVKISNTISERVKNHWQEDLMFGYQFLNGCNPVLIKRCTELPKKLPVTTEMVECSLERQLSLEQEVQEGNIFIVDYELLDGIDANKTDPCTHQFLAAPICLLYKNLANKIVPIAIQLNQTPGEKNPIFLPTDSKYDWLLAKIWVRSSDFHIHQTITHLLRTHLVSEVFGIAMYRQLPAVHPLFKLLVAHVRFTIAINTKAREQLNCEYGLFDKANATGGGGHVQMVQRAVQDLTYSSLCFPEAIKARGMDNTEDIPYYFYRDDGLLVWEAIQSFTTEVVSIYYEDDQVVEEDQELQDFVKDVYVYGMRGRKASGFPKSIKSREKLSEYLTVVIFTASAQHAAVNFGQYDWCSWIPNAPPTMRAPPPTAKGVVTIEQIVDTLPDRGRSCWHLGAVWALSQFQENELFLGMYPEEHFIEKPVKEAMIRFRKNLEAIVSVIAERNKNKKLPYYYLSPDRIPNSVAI
Method in brief: as §1

CO [2] = biological target: T1, CO; experiment: Procedure III: CO (PgD2) in intact RBL-1 cells; assay type: cell-based; settings: calcium ionophore A 23187, read-out: Proc. III CO IC50
Method in brief: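 Intact RBL-1 cells at 1×10^5 cells/mL in HBSS were preincubated with vehicle or drug, pelleted and resuspended, then given 1-^14C-AA. 5-HETE (5-LO) and PgD2 (CO) were separated by TLC after acidification/extraction and quantified by radioimaging; IC50 from regression curve fit.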

CO [3] = experiment: Procedure IV: ex vivo eicosanoid synthesis assay using dogs, CO (TxB2); assay type: in vivo; settings: dog, oral, 5 mg/kg
Description: Adult beagle or mongrel dogs (10-15 kg) of either sex were fasted overnight prior to the initiation of each experiment. The forelimb was clipped and swabbed with an alcohol prep (70% isopropanol). Blood was drawn by venipuncture into syringes containing lithium heparin (Starstead, Newton, N.C.) immediately prior to administration of compound or vehicle and then at various intervals following dosing. The test compound was administered orally as a suspension in 0.5% methocel. At various times after dosing, blood samples were drawn and placed on an electric rocker platform to assure complete and continuous mixing. White blood cell (wbc) counts were performed using a Sysmex hematology analyzer. This was done in an effort to normalize the number of leukocytes to be stimulated with calcium ionophore. A 1.0 mL aliquot of whole blood was challenged with 50 μL of a 2.6×10^-5 M solution of calcium ionophore A23187 (Calbiochem, La Jolla, Calif.) prepared in DMSO and diluted in HBSS. After a 15 minute incubation at 37° C., the reaction was stopped by placing the samples in an ice bath (4° C.) for 5 minutes and then centrifuging at 11,000×g for 5 minutes to separate the plasma fraction from blood cells. The plasma fraction was removed, diluted in an appropriate buffer, and analyzed for the presence of LTB4 and TxB2 by standard RIA techniques.

COc1ccc(-n2nc(C#CCN(O)C(N)=O)cc2-c2ccc(C)cc2)cc1 [Cpd 1, N-Hydroxy-N-(1(1-(4-methoxyphenyl)-5-(4-methylphenyl)pyrazol-3-yl)-1-propyn-3-yl)urea]
IC50 (CO [1]): 310 nM
IC50 (5-LO): 70 nM
IC50 (CO [2]): 12100 nM
% inh CO (CO [3]; 1 h): 86%
% inh CO (CO [3]; 2 h): 82%
% inh CO (CO [3]; 4 h): 76%
% inh CO (CO [3]; 8 h): 46%
% inh CO (CO [3]; 24 h): 11%
